From ChEMBL document CHEMBL1149118, “Validation of molecular docking calculations involving FGF-1 and FGF-2” (J Med Chem, 2004)

Experiments:
[1] = biological target: T1, Fibroblast growth factor 1 (Homo sapiens, UniProt P05230); assay: Binding affinity for Fibroblast growth factor 1
[2] = biological target: T2, Fibroblast growth factor 2 (Homo sapiens, UniProt P09038); assay: Dissociation constant for Fibroblast growth factor 2
[3] = biological target: T2, Fibroblast growth factor 2; assay: Binding affinity for Fibroblast growth factor 2
[4] = biological target: T1, Fibroblast growth factor 1; assay: Dissociation constant for Fibroblast growth factor 1
[5] = biological target: T2, Fibroblast growth factor 2; assay: Dissociation constant for Fibroblast growth factor 2 (None observed)
[6] = biological target: T2, Fibroblast growth factor 2; assay: Dissociation constant for Fibroblast growth factor 2 (None Observed)

T1 sequence (P05230 whole entry): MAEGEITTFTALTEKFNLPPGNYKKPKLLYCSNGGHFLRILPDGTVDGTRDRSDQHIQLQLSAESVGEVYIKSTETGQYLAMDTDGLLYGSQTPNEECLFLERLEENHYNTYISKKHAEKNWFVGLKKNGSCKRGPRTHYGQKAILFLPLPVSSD
T2 sequence (P09038 143-288 limits assumed): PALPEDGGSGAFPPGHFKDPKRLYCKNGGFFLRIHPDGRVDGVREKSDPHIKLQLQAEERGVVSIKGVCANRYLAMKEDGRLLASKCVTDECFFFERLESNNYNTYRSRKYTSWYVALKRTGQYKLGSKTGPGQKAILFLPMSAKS

Delta G [1] [kcal/mol]	Kd [2] [µM]	Delta G [3] [kcal/mol]	Kd [4] [µM]	Kd [5]	Kd [6]	Structure (SMILES)
-8.36	5.5	-7.17	0.74	–	–	O=S(=O)(O)C[C@@H]1[C@@H](O[C@]2(COS(=O)(=O)O)O[C@H](COS(=O)(=O)O)[C@@H](OS(=O)(=O)O)[C@@H]2OS(=O)(=O)O)O[C@@H](CS(=O)(=O)O)[C@@H](OS(=O)(=O)O)[C@H]1OS(=O)(=O)O
-4.14	–	–	921	None observed	–	CO[C@@H]1O[C@@H](COS(=O)(=O)O)[C@@H](OS(=O)(=O)O)[C@H](OC(=O)c2ccccc2)[C@@H]1OC(=O)c1ccccc1
-8.07	13.3	-6.65	1.2	–	–	O=S(=O)(O)OC[C@@H]1O[C@@H](O[C@H]2[C@H](OS(=O)(=O)O)[C@H](OS(=O)(=O)O)C(OS(=O)(=O)O)O[C@H]2COS(=O)(=O)O)[C@@H](OS(=O)(=O)O)[C@H](OS(=O)(=O)O)[C@H]1OS(=O)(=O)O (some centres not stated)
-3.92	–	–	1340	None observed	–	C=CCOC1C(C)OC(OC)C(OS(=O)(=O)O)C1OS(=O)(=O)O (configuration not stated)
-3.04	17400	-2.39	5940	–	–	CO[C@@H]1CCO[C@H](COS(=O)(=O)O)C1OS(=O)(=O)O (some centres not stated)
-6.04	155	-5.19	37.5	–	–	O=S(=O)(O)OC[C@@H]1O[C@H](OS(=O)(=O)O)[C@H](OS(=O)(=O)O)[C@@H](OS(=O)(=O)O)[C@@H]1OS(=O)(=O)O
-5.31	343	-4.72	127	–	–	CO[C@H]1O[C@H](COS(=O)(=O)O)[C@@H](OS(=O)(=O)O)[C@H](OS(=O)(=O)O)[C@@H]1OS(=O)(=O)O
-4.38	–	–	609	–	None Observed	O=C(O)c1cc(/N=N/c2ccc(S(=O)(=O)Nc3ccccn3)cc2)ccc1O [SULFASALAZINE]
-8.1	16.2	-6.53	1.15	–	–	CO[C@@H]1O[C@@H](COS(=O)(=O)O)[C@@H](O[C@@H]2O[C@@H](COS(=O)(=O)O)[C@H](OS(=O)(=O)O)[C@H](OS(=O)(=O)O)[C@@H]2OS(=O)(=O)O)[C@H](OS(=O)(=O)O)[C@@H]1OS(=O)(=O)O
-3.36	5100	-3.13	3410	–	–	O=S(=O)(O)OC[C@H]1OCC[C@@H](OCc2ccccc2)C1OS(=O)(=O)O (some centres not stated)
-11.1	1.18	-8.08	0.0078	–	–	O=S(=O)(O)OC[C@@H]1O[C@H](OS(=O)(=O)O)[C@H](OC2O[C@@H](COS(=O)(=O)O)[C@@H](S(=O)(=O)O)[C@H](O[C@H]3O[C@@H](COS(=O)(=O)O)[C@@H](OS(=O)(=O)O)[C@H](OS(=O)(=O)O)[C@H]3OS(=O)(=O)O)[C@H]2OS(=O)(=O)O)[C@@H](OS(=O)(=O)O)[C@@H]1OS(=O)(=O)O (some centres not stated)
-4.73	258	-4.89	340	–	–	[N-]=[N+]=NCC1OC(OS(=O)(=O)O)C(OS(=O)(=O)O)C(OS(=O)(=O)O)C1OS(=O)(=O)O (configuration not stated)
-5.35	375	-4.67	120	–	–	O=C(CN(Cc1ccccc1)C(=O)C1OC(OS(=O)(=O)O)C(OS(=O)(=O)O)C(OS(=O)(=O)O)C1OS(=O)(=O)O)NC1CCCCC1 (configuration not stated)
-4.79	8020	-2.86	307	–	–	COC1C(OCc2ccccc2)C2COC(O2)C1OS(=O)(=O)O (configuration not stated)
-4.73	249	-4.91	338	–	–	COC1OC(C)C(OCc2ccccc2)C(OS(=O)(=O)O)C1OS(=O)(=O)O (configuration not stated)
-8.54	6.3	-7.09	0.54	–	–	O=S(=O)(O)OC[C@@H]1O[C@H](O[C@H]2[C@H](OS(=O)(=O)O)[C@H](OS(=O)(=O)O)C(OS(=O)(=O)O)O[C@H]2COS(=O)(=O)O)[C@@H](OS(=O)(=O)O)[C@H](OS(=O)(=O)O)[C@H]1OS(=O)(=O)O (some centres not stated)
-4.8	550	-4.44	300	–	–	CO[C@H]1O[C@@H](COCC(=O)N(CCOS(=O)(=O)O)CC(=O)NC2CCCCC2)[C@@H](OS(=O)(=O)O)[C@H](OS(=O)(=O)O)[C@H]1OS(=O)(=O)O
-9.39	26.7	-6.24	0.13	–	–	O=S(=O)(O)C[C@@H]1[C@H](OS(=O)(=O)O)O[C@H](OS(=O)(=O)O)[C@H](O[C@H]2O[C@@H](COS(=O)(=O)O)[C@@H](OS(=O)(=O)O)[C@H](OS(=O)(=O)O)[C@H]2OS(=O)(=O)O)[C@H]1OS(=O)(=O)O
-3.39	7500	-2.9	3250	–	–	O=S(=O)(O)OC[C@H]1OCC[C@@H](OCCCOc2ccccc2)C1OS(=O)(=O)O (some centres not stated)
-4.53	223	-4.98	474	–	–	O=S(=O)(O)c1ccc2c(S(=O)(=O)O)cc(S(=O)(=O)O)cc2c1 [NAPHTHALENE TRISULFONATE]
